US20050208125A1, “Substantially pure solid form of the enol tautomer of 3-indolypyruvic acid for use in the treatmetn of central nervous system disturbances” (priority 2002, published 2005)
Where two headings read alike, the source gives them in different places. Each block holds one compound with its values, some of them ahead of it.

Key:
[1] = system: rats; assay: Pharmacological tests in rats, oral and IP; type: in vivo, rat
[2] = Stability of the enol form in solution (UV 325 nm peak, HPLC); type: physicochemical
Description: When the enol tautomer of 3-indolylpyruvic acid is solubilized in an aqueous environment, the decline of the UV peak at 325 nm, more or less quick according to the solution temperature, the pH and the type of buffer used is immediately observed. […] In the experimental conditions used, a quicker disappearance of the 325 nm peak is observed when the enol tautomer of the ketoacid is solubilized in diluted NaOH solutions; it follows that in this solvent the keto-enol equilibrium shifts towards the keto form in a few seconds.
At longer incubation times also the gem-diole form disappears, without giving rise to the keto form.
In particular, using a phosphate solution at pH 7.4, it is observed that the enol form drops to the 44% already at +30 min, whereas the gem-diole form begins to predominate (increase) at +1 hour (44% vs 23%), yet it stabilizes at about +2 hours (49%), and then gradually declines.

[3] = Intravenous injection in baboons, enol and kynurenic acid plasma kinetics; type: in vivo, baboon; settings: intravenously, 200 mg/Kg
Method: (§1) It is already known from literature that the 3-indolylpyruvic acid may function, in suitable methabolic situations, as direct precursor to the kynurenic acid, the most important endogenous inhibitor of the excitatory amino acids. […] Therefore, comparison tests were conducted between the enol form of 3-indolylpyruvic acid, obtained according to the method described above in examples 1 and 2, the keto form (obtained solubilizing a standard preparation of 3-indolylpyruvic acid obtained from commercial sources in 0.1M NaOH), and a mixture of the two forms (obtained solubilizing the above standard preparation in a pH 7.4 phosphate buffer). […] Moreover, the enol form is found to be 100 to 1000 times more powerful than the keto one, both in protecting membrane phospholipids from degradation and in blocking luminol chemiluminescence induced by a xanthin/xanthin oxidase mixture. Concerning the formation of kynurenic acid, under the same experimental conditions the enol form of 3-indolylpyruvic acid always produced from 20 to 100 times more kynurenic acid than the keto form or the mixture of the two forms. […] Concomitantly, kynurenic acid began to form, reaching a plasma peak at +90-+180 min from the enol injection, with remarkable interindividual variations.

[4] = system: Human melanoma cells (A2058 line); assay: Melanoma cell invasion through Matrigel; type: cell-based; settings: mean of three experiments ± SD
Description: Matrigel is an extracellular biological matrix extracted from the Englebreth-Holm-Swarm murine sarcoma, composed of the major components of the basement membrane like laminin, entactin, collagen IV and proteoglycans. At room temperature, Matrigel forms a gel that can promote the growth of primary and continuous cell lines, and moreover can act as medium (substrate) for the adhesion, the differentiation, the migration and the invasion of tumor cell lines. Due to such features, a Matrigel test is commonly used in order to characterize the activity of substances capable of interfering with the motility of tumor cells and of inflammatory response cells. The test is conducted in wells partitioned by an 8 micron pore size membrane: Matrigel (12.4 micrograms) is uniformly spread on the membrane, whereas a chemoattractant (600 microliters), consisting of the supernatant of a murine hembryo cell line (3T3) is inserted in the bottom section of the well. The cells to be tested are seeded in the top section of the well, whereas the compounds that could interfere with their motility are placed above as well as below the membrane, so as to prevent the formation of a concentration gradient. At the end of the experiment, the cells that have crossed the membrane are counted.
Human melanoma cells (A2058 line) were cultured in MEM medium, in a 5% CO2 at 37° C. Having reached the desired growth level, the (100.000) cells were seeded in the top section of the well. The enol of 3-indolylpyruvic acid and its salts, solubilized in the cell culture medium were placed in the top and bottom section of the well.

[5] = Incubation in rat liver homogenates; type: in vitro ADME
Description: The near-pure enol tautomer of 3-indolylpyruvic acid, obtained by the method described above in examples 1 and 2, was investigated on rat tissue homogenates, in order to highlight its participation in the methabolic pathways characterizing the use of tryptophan and of its derivatives in mammalian cells. […] This phenomenon, ascribed to the presence in biological fluids of a specific tautomerase already reported in literature, allows the enol form to be subjected to biochemical transformations by specific enzymes active on the indoles. In particular, when the enol form of the ketoacid is incubated in rat liver homogenates, […] is rather linear in time, is independent from the pH—at least in the 6.5÷7.5 interval—and it leads to the conversion of over the 50% of the ketoacid in 5 hours.

[6] = Plasma levels in rats after gastric lavage; type: in vivo; settings: rat, oral, read-out: plasma level
Method: Raising the dose to 400 mg/Kg, values of 160±13 mcg/ml for acute administration and of 189±68 mcg/ml for chronic administration were obtained.

[7] = system: superoxide anion; assay: Neutralizing power towards oxygen free radicals; type: biochemical; settings: contrarily to the keto tautomer form
Method: as §1

[8] = Incubation in rat tissue homogenates, enol form versus keto form; type: in vitro ADME
Description: The near-pure enol tautomer of 3-indolylpyruvic acid, obtained by the method described above in examples 1 and 2, was investigated on rat tissue homogenates, in order to highlight its participation in the methabolic pathways characterizing the use of tryptophan and of its derivatives in mammalian cells. […] This phenomenon, ascribed to the presence in biological fluids of a specific tautomerase already reported in literature, allows the enol form to be subjected to biochemical transformations by specific enzymes active on the indoles. In particular, when the enol form of the ketoacid is incubated in rat liver homogenates, a gradual transformation of the enol of 3-indolylpyruvic acid in tryptophan is observed: the transformation is rather linear in time, is independent from the pH—at least in the 6.5÷7.5 interval—and it leads to the conversion of over the 50% of the ketoacid in 5 hours.

[9] = system: LAN5 human neuroblastoma cells; assay: Neuronal cell sprouting (neurite length); type: cell-based; settings: 10 μM, 7 days; for average length of the neurites: ± SD, untreated 21.8 ± 8.8
Method: LAN5 human neuroblastoma cells were seeded in 6-well plates (25.000 cells/well) in DMEM (Dulbecco's Modified Eagle's Medium) medium, additioned with 10% -fetal serum and 40 micrograms/ml gentamycin. After 24 hours, the enol tautomer of 3-indolylpyruvic acid or its derivatives, at an end concentration of 10 μM was added to the culture medium. The treatment was continued for 7 days, with medium replacement and addition of the compound under test every three days. At +7 days the cells were photopgraphed, using a Leitz Dialux 20 microscope. Then, neurite length was measured.
The results, reported in the following Table, express, in microns, the average length of the neurites for each treatment; ± is the standard deviation: […]

[10] = Solubility of the enol form in solvents; type: physicochemical
[11] = Plasma levels in dogs after administration in food-mixed pellets; type: in vivo; settings: dog, oral
Method: In dogs as well analogous results were obtained, as the administration (in food-mixed pellets) of 100 mg/Kg enol form of 3-indolylpyruvic acid led, at +1 hour, to plasma rates of 106±47 -mcg/ml in acute, and of 97±17 mcg/ml in chronic. 285 mg/Kg doses produced, at +1 hour,concentrations of 136±17 mcg/ml in acute, and of 120±8 mcg/ml in chronic.

[12] = cited from earlier work
[13] = phosphate solution pH 7.4, +1 hour

time in which keto-enol equilibrium shifts towards the keto form ([2]; diluted NaOH solutions): a few seconds
stability in methanol ([2]; methanol, several days at room temperature): extremely stable
enol form remaining ([2]; phosphate solution pH 7.4, +30 min): 44%
enol form remaining [2, 13]: 23%
gem-diole form formed [2, 13]: 44%
gem-diole form formed ([2]; phosphate solution pH 7.4, about +2 hours): ~49%
transformation into 3-indolyl-lactic acid [5]: No transformation
concentration at 1 hour ([6]; 100 mg/kg, chronic): 183 ± 78 µg/mL
concentration at 1 h ([6]; 100 mg/kg, gastric lavage, 100 mg/Kg, acute, +1 hour): 74 ± 14 µg/mL
concentration at 1 hour ([6]; 400 mg/kg, acute): 160 ± 13 µg/mL
concentration at 1 hour ([6]; 400 mg/kg, chronic): 189 ± 68 µg/mL
stability in slightly alkaline buffer environments ([8]; pH 7.4, rat tissue homogenates): good stability
solubility in acetone ([10]; acetone): highly soluble
solubility in chloroform ([10]; chloroform): wholly insoluble
solubility in ethanol ([10]; ethanol): highly soluble
solubility in ethyl ether ([10]; ethyl ether): slightly soluble
solubility in methanol ([10]; methanol): highly soluble
solubility in water ([10]; water): wholly insoluble
concentration at 1 h ([11]; 100 mg/kg, chronic, read-out: plasma rate): 97 ± 17 µg/mL
concentration at 1 h ([11]; 100 mg/kg, food-mixed pellets, 100 mg/Kg, acute, read-out: plasma rate): 106 ± 47 µg/mL
concentration at 1 h ([11]; 285 mg/kg, acute, read-out: plasma concentration): 136 ± 17 µg/mL
concentration at 1 h ([11]; 285 mg/kg, chronic, read-out: plasma concentration): 120 ± 8 µg/mL
SMILES: O=C(O)/C(O)=C/c1c[nH]c2ccccc12 [3-IPA ENOL, enol tautomer of 3-indolylpyruvic acid]
observed effects compared with the mixture of the two tautomers ([1]; mixture in pH 7.4 phosphate buffer): clearly superior
pharmacological properties on the cardiovasculary system ([1]; orally and by IP injection): pressure reduction in hypertensive rats, but not in normotensive rats
pharmacological properties on the central nervous system ([1]; orally and by IP injection): prolongation of sleep, central analgesia, protection from NMDA-induced convulsions, reduction of toxic effects from opiates, anxiolytic and antidepressant effects, stress inhibition
enol plasma concentration curve [3]: remaining at clearly detectable levels for a few hours
inhibition at 125 µM ([4]; Homo sapiens, 125 μM): 44 ± 5%
inhibition at 250 µM ([4]; Homo sapiens, 250 μM): 77 ± 11%
inhibition at 500 µM ([4]; Homo sapiens, 500 μM): 97 ± 2%
neutralizing power towards superoxide anion and hydroxyl ions [7]: strong neutralizing power
average length of the neurites [9]: 31.9 ± 6.8 micrometers

SMILES: O=C(O)Cc1c[nH]c2ccc(O)cc12 [5-Hydroxy-Indolylacetic acid, reference compound]
effect on neurite length (in words) [9]: do not influence neurite length
average length of the neurites [9]: 25.7 ± 13.2 micrometers

SMILES: O=C([O-])C(O)=Cc1c[nH]c2ccccc12.O=C([O-])C(O)=Cc1c[nH]c2ccccc12.[Ca+2] [Ca salt, calcium salt of the enol form of 3-indolylpyruvic acid]
Inhibition % ([4]; 70 μM): 38 ± 10%
Inhibition % ([4]; 140 μM): 82 ± 6%
average length of the neurites [9]: 32.7 ± 8.3 micrometers

SMILES: O=C([O-])C(O)=Cc1c[nH]c2ccccc12.[Li+] [Li salt, lithium salt of the enol tautomer of 3-indolylpyruvic acid]
Inhibition % ([4]; 125 μM): 48 ± 7%
Inhibition % ([4]; 250 μM): 91 ± 5%
average length of the neurites [9]: 29.4 ± 8.5 micrometers

SMILES: O=C([O-])C(O)=Cc1c[nH]c2ccccc12.O=C([O-])C(O)=Cc1c[nH]c2ccccc12.[Mg+2] [Mg salt, magnesium salt of the enol form of 3-indolylpyruvic acid]
Inhibition % ([4]; 65 μM): 46 ± 14%
Inhibition % ([4]; 130 μM): 66 ± 7%
average length of the neurites [9]: 40.1 ± 17.5 micrometers

SMILES: O=C(O)Cc1c[nH]c2ccccc12 [3-Indolylacetic acid, reference compound]
effect on neurite length (in words) [9]: do not influence neurite length
average length of the neurites [9]: 23.3 ± 10.5 micrometers

SMILES: O=C(O)C(O)Cc1c[nH]c2ccccc12 (centres unmarked) [3-Indolyllactic acid]
effect on neurite length (in words) [9]: noticeable effects on neurite length
average length of the neurites [9]: 39.7 ± 11.8 micrometers

transformation to tryptophan or to 3-indolyl-lactic acid ([8]; rat tissue homogenates): no significant transformations
SMILES: O=C(O)C(=O)Cc1c[nH]c2ccccc12 [keto form, reference compound]
effects on the considered pharmacological parameters ([1]; keto form solubilized in 0.1M NaOH): no apparent effects

SMILES: O=C([O-])C(O)=Cc1c[nH]c2ccccc12.[K+] [K salt, potassium salt of the enol tautomer of 3-indolylpyruvic acid]
Inhibition % ([4]; 125 μM): 51 ± 3%
Inhibition % ([4]; 250 μM): 78 ± 3%
average length of the neurites [9]: 44.1 ± 12.1 micrometers

SMILES: O=C(O)C(=O)Cc1c[nH]c2ccccc12 [3-indolylpyruvic acid]
time in which UV spectrum of the enol tautomer converted to that of the keto tautomer ([12]; Schwarz 1961): over 2 hours
time in which largely converted to the keto form ([12]; solution at pH 8.0, Schwarz and Bitancourt 1960): 20 min

SMILES: O=C([O-])C(O)=Cc1c[nH]c2ccccc12.[Na+] [Na salt, sodium salt of the enol form of 3-indolylpyruvic acid]
Inhibition % ([4]; 125 μM): 52 ± 1%
Inhibition % ([4]; 250 μM): 78 ± 3%
average length of the neurites [9]: 28.3 ± 16.4 micrometers
